Experimental data as given in patent US7119077B1, “Multimeric forms of members of the steroid/thyroid superfamily of receptors with the ultraspiracle receptor” (The Salk Institute for Biological Studies, priority 1990, dated 2006).

How the values were obtained:
GEcR/usp [1] = target: T1, GEcR/usp (UniProt P04150+P34021, C431Y/E427R/G434N/G439E/K419E/P331L/P416R/S425G/S440G/V435A/V443G); assay: Cotransfection CAT reporter assay with GEcR (GR N-terminal domain fused to EcR) and usp in CV1 cells; format: cell-based, Drosophila; settings: CV1 cells cotransfected with GEcR and usp expression plasmid, EcRE reporter
T1 construct: expressed in transfected cells; host or cells: CV1 monkey kidney cells
T1 sequence (P04150+P34021 with tags, fused parts or gaps P04150:P416R/P04150:K419E/P04150:S425G/P04150:E427R/P04150:C431Y/P04150:G434N/P04150:V435A/P04150:G439E/P04150:S440G/P04150:V443G/P34021:P331L): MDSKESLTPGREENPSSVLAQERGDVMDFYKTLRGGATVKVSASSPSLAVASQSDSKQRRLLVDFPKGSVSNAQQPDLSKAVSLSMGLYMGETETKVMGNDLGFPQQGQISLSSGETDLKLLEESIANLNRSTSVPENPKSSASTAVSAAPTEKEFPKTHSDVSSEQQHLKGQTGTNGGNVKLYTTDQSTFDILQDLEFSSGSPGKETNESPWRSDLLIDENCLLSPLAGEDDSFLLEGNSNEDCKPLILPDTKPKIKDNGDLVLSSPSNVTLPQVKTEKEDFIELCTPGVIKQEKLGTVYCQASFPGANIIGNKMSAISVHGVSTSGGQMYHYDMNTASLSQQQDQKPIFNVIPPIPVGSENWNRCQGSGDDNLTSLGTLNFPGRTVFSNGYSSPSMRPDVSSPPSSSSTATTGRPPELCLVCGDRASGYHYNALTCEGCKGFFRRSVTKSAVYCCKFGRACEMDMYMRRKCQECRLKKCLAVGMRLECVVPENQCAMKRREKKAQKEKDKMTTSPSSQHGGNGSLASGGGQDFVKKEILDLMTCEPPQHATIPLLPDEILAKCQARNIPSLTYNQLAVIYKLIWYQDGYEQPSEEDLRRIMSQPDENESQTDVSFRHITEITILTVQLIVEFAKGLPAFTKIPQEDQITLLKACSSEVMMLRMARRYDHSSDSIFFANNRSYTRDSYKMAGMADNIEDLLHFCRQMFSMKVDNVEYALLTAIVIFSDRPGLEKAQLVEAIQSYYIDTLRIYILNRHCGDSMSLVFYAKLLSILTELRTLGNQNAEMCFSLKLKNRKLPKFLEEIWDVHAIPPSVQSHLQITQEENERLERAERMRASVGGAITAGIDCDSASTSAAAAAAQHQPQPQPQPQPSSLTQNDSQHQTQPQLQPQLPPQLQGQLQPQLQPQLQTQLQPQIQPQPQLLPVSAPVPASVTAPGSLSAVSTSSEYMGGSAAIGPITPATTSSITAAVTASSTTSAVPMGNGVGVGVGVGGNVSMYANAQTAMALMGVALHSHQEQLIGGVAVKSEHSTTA
T1 sequence (P20153 1-508 partner): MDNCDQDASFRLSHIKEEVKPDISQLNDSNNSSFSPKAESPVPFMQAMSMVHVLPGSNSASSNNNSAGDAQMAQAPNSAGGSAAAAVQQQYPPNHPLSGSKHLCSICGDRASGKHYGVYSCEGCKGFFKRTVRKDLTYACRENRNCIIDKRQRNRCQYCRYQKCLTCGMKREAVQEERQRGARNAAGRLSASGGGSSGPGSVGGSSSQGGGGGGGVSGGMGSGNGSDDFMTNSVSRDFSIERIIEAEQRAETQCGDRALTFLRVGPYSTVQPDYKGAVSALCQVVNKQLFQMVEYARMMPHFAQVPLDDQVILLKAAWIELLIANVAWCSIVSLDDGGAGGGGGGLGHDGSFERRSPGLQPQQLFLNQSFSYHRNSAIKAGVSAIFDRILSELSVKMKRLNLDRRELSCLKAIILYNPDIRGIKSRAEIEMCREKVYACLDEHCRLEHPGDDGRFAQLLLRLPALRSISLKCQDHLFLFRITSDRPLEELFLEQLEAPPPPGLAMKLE
Text: (§1) GEcR was constructed by ligation of a NotI/BamHI fragment containing the DNA and hormone binding domains of a modified EcR cDNA, EcRnx, in place of the DNA and hormone binding domains of the similarly modified glucocorticoid receptor expression construct pRShGRnx [Giguére et al., Nature Vol. 330:624–629 (1987)]. The modified receptor cDNA was constructed using the site-directed mutagenesis procedure of Kunkel, T. A., Proc. Natl. Acad. Sci. USA Vol. 82:[…] (1985) to insert NotI (employing SEQ ID NO:23 as the oligonucleotide template) and XhoI (employing SEQ ID NO:24 as the oligonucleotide template) sites immediately flanking the DNA binding domain. SEQ ID NO:23 is:
(§2) Transfection was performed with calcium-phosphate precipitation method as described previously [Umesono et al., Nature 336:262–264 (1989)]. […] Beta-galactosidase (βGal) activity was measured and a normalized amount of extract was used for CAT assay (Umesono et al. (1989) supra]. The following amount of plasmid DNA was included in the 10 cm plate transfection: 250 ng each of CMX-EcR and RSV-GEcR; 500 ng of CMX-usp; 5 μg ΔMTV-EcRE5-CTA; 5 μg of βGal internal control plasmid CH111 (a derivative of CH110, Promega). The amount of CMX plasmid was kept constant in each transfection by adding CMX-luciferase. PGEM4 was added to bring the total amount of plasmid DNA to 15 μg per plate. […]

GEcR/usp [2] = target: T2, GEcR/usp (UniProt P04150+P34021, C431Y/E427R/G434N/G439E/K419E/P331L/P416R/S425G/S440G/V435A/V443G); assay: as above; format: cell-based, Drosophila; settings: CV1 cells transfected with GEcR alone
T2 construct: expressed in transfected cells; host or cells: CV1 monkey kidney cells
T2 sequence (P04150+P34021 with tags, fused parts or gaps P04150:P416R/P04150:K419E/P04150:S425G/P04150:E427R/P04150:C431Y/P04150:G434N/P04150:V435A/P04150:G439E/P04150:S440G/P04150:V443G/P34021:P331L): T1 sequence (P04150+P34021 with tags, fused parts or gaps P04150:P416R/P04150:K419E/P04150:S425G/P04150:E427R/P04150:C431Y/P04150:G434N/P04150:V435A/P04150:G439E/P04150:S440G/P04150:V443G/P34021:P331L)
Text: as §1, §2

Substance: 20-Hydroxyecdysone [20-OH-ecdysone]
- induction of CAT activity (GEcR/usp [1]): 8–10 fold
- ecdysone response (CAT activity) (GEcR/usp [2]): failed to confer ecdysone response
